Legend:
Assay type in all cases: physicochemical
[1] = storage stability test of an equivalent mixture with L-arginine (degree of whiteness, coloration); details: for appearance (color) after storage / decrease ratio in degree of whiteness: 40° C., 2 weeks; for appearance (color) after storage / decrease ratio in degree of whiteness / degree of whiteness after the test: 75% RH, airtight; for degree of whiteness after the test: after 2 weeks at 40° C.; for degree of whiteness at the onset: at onset/initiation of the storage test
Excerpt: In a β-glucan derivative according to the present invention, a non-reducing end needs not to be bound to all reducing ends. A non-reducing end may be bound to reducing ends to the extent that an active ingredient such as a medicament or the like having an amino group is stably present. The conversion rate of a reducing end of the β-glucan into a non-reducing end is preferably 0.1 mol % or more. Whether an active ingredient is present in a stable state can be readily checked by an observation based on degree of coloration in a storage stability test in a condition that is performed by mixing an active ingredient and a β-glucan derivative in equivalent amounts and stored the mixture at 40° C. under 75%. Since it has a reducing end, β-glucan is known to initiate the Maillard reaction with an active ingredient having a terminal amino group to form an amino-carbonyl bond and produce color. However, a β-glucan derivative according to the present invention has an advantageous effect in that since the reducing end is inactivated by a non-reducing sugar, no coloring reaction takes place. The effect of the present invention is particularly effective for an active ingredient having a primary amine.
Whether fructose was bound was confirmed based on an increase of a peak in a mass spectrum and a storage stability test of an equivalent mixture of the obtained transglucosylated product and L-arginine contained at 40° C. and 75% RH, airtight for 2 weeks. A decrease ratio in degree of whiteness was 2% (it was 99% at the onset and 97% after the test).

[2] = hardness of molded cylindrical product (Schleuniger hardness tester type 6D)
Experimental: (§1) The hardness of the molded cylindrical product thus obtained was measured by a Schleuniger hardness tester type 6D (Trademark, manufactured by FREUND Corporation). More specifically, a load pressure was applied to the molded cylindrical product or a tablet in the direction of the diameter to break it. The weight at the moment was measured. The hardness was represented by an average value of 10 samples. Furthermore, the disintegration time of the molded cylindrical product was determined in accordance with a general test method, a disintegration test method for tablets specified in the Japanese Pharmacopeia, 14th revision, by use of a disintegration tester (Toyama Sangyo Co., Ltd., Trade name: NT-40HS type with a disk), at 37° C. in pure water. The disintegration time was represented by an average of 6 tablets

[3] = disintegration time of molded cylindrical product (Japanese Pharmacopeia disintegration test); details: 37° C., pure water
Experimental: as §1

hardness of the molded cylindrical product ([2]; compression pressure 35 kN) [N] | disintegration time of the molded cylindrical product ([3]; compression pressure 35 kN) [s] | Substance | appearance (color) after storage [1] | decrease ratio in degree of whiteness [1] [%] | degree of whiteness after the test [1] [%] | degree of whiteness at the onset [1] [%] | hardness of the molded cylindrical product ([2]; compressed at 25 kN, φ8 mm, average of 10 samples) [N] | disintegration time of the molded cylindrical product ([3]; compressed at 25 kN, with disk, average of 6) [s]
80 | 300 | transglucosylated cellobiose [Comparative Example 2] | White color in appearance was maintained | 3 | 96 | 99 |  | 
 |  | transglucosylated cellotriose [Example 1] | White color in appearance was maintained | 2 | 97 | 99 | 70 | 58

From patent US7795240B1, “Nonreducing beta-glucan derivative” (Asahi Kasei Chemicals Corporation, priority 2003, dated 2010)
